≈ marks a conversion by molar mass, not a printed value. Where two headings read alike, the source gives them in different places.
What was measured:
E. coli DNA gyrase = E. coli DNA gyrase (Escherichia coli, UniProt P0AES6); experiment: E. coli DNA gyrase supercoiling assay; assay type: biochemical; conditions: for IC50: supercoiling assay, average of three independent measurements
Description: (§1) All final compounds were first tested for their inhibitory activity in the E. coli DNA gyrase supercoiling assay and the E. coli topoisomerase IV relaxation assay (Table 1). […] These observations were confirmed with compounds 18a and 18b, which carried the siderophore mimic at position 4. […] With compounds 18a and 18b, we confirmed our hypothesis that it is possible to maintain potent enzyme inhibition after introduction of the siderophore mimic into the structure of the GyrB/ParE inhibitor.
(§2) The assays for determination of IC50 against E. coli DNA gyrase and topoisomerase IV were performed according to previously reported procedures.[23] IC50 values were determined with seven concentrations of the inhibitors. […] IC50 values were determined in three independent measurements, and their average value is given as a final result.

E. coli topoisomerase IV [1] = molecular target: T1, E. coli topoisomerase IV (Escherichia coli, UniProt P20083); experiment: E. coli topoisomerase IV relaxation assay; assay type: biochemical; conditions: average of three independent measurements
T1 sequence (P0AFI2 whole entry): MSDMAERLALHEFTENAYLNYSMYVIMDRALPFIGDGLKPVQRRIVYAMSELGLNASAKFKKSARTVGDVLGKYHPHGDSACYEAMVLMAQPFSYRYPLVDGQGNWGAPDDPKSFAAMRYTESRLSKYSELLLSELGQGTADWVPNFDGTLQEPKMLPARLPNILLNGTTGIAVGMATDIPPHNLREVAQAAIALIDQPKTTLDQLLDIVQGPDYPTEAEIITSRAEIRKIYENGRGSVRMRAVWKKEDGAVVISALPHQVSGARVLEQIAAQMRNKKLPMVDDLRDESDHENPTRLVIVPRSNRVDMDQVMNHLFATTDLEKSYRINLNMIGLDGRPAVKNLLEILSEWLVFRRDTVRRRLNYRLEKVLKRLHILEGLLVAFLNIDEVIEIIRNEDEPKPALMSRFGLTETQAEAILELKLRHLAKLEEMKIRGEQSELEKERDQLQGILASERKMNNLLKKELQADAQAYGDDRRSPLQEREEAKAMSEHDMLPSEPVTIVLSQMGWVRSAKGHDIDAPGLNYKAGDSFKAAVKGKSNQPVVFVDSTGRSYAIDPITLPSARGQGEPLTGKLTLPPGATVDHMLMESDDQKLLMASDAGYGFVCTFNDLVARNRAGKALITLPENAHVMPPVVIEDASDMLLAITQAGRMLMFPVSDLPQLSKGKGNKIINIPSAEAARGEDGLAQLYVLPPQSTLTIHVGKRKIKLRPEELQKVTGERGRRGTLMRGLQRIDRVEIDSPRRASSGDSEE
T1 sequence (P20083 whole entry): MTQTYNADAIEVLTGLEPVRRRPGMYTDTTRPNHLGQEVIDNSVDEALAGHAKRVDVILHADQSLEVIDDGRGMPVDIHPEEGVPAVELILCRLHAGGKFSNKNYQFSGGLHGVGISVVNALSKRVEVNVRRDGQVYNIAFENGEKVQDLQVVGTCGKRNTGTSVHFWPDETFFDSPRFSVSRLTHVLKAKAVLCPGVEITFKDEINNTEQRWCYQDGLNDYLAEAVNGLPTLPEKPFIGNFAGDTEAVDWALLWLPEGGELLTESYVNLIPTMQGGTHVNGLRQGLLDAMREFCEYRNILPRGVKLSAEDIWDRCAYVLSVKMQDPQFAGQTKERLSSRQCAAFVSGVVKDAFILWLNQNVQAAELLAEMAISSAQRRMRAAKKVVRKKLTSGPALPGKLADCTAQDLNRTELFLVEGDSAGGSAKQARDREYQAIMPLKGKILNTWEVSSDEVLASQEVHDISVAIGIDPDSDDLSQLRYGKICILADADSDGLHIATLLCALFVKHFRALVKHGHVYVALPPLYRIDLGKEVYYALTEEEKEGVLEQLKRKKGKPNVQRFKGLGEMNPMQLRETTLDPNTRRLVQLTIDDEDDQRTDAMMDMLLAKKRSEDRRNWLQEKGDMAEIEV
Description: as §1, §2

E. coli ATCC 25922 = experiment: Broth microdilution MIC, E. coli ATCC 25922; assay type: cell-based, Escherichia coli
Description: (§3) Cefiderocol, a siderophore cephalosporin, was used as a positive control. Compound 18a was only tested on E. coli in both media conditions. Iron-depleted conditions were used to determine the effects of the attached siderophore mimics on antibacterial activities, since bacteria under low iron conditions produce and secrete siderophores to take up iron from the extracellular environment.[32] […] We have previously observed that our benzothiazole GyrB/ParE inhibitors are strongly effluxed from the G− bacterial cells and that this effect is especially pronounced in E. coli.[14] Therefore, compounds 10, 12, and 18b were also tested against E. coli JW5503, which is a tolC deletion mutant strain with a defective efflux pump.
(§4) The single-gene knock-out mutant strain of E. coli JW5503 (tolC knock-out) was obtained from the E. coli collection of the National BioResource Project at the National Institute of Genetics (Japan).[45] To determine the antibacterial activities, broth microdilution assays were carried out in 96-well plates following the Clinical and Laboratory Standards Institute guidelines.[46] Compounds were prepared as 100% DMSO stock solutions. The final concentration of DMSO was 1% and had no effect on the growth of bacteria. Preliminary screening was performed at 50 μM, and growth inhibition was measured after 24 h incubation at 37 °C. For compounds displaying >90% growth inhibition in the preliminary assay, MIC values were determined in dose–response assays (from at least two independent experiments, each with three replicates per concentration). Cation-adjusted Mueller-Hinton broth (CAMHB, BD) was used in all assays. CAMHB was prepared according to manufacturer's instructions and iron-depleted CAMHB (ID-CAMHB) according to CLSI guidelines. ID-CAMHB was used in order to mimic the conditions faced by bacteria during human infections, and induces the ferric iron transport. ID-CAMHB was prepared by adding 100 g of Chelex 100 resin (Bio-Rad) to 1 L of autoclaved CAMHB and stirred for 2 h at room temperature, in order to remove cations from the medium. Then, broth was filtered using a 0.2 μm filter to remove the resin and pH adjusted to 7.3 using 5 M hydrochloric acid. ID-CAMHB was then supplemented with calcium (CaCl2), magnesium (MgCl2) and zinc (ZnSO4) to final concentrations of 22.5 μg mL^−1, 11.25 μg mL^−1 and 0.56 μg mL^−1, respectively, and filtered again. To evaluate the effect of iron concentration on antibacterial effect of compounds, an appropriate amount of iron(III) chloride was added to ID-CAMHB, and this supplemented media was used as control CAMHB. The iron concentration in CAMHB and ID-CAMHB were approximately 0.2 mg L^−1 and ≤0.03 mg L^−1, respectively. Cefiderocol, a positive control, MICs were determined against E. coli, P. aeruginosa and A. baumannii, and used as positive control in the assays. Cefiderocol was purchased from MedChemExpress Europe.

P. aeruginosa ATCC 27853 = experiment: Broth microdilution MIC, P. aeruginosa ATCC 27853; assay type: cell-based; conditions: Pseudomonas aeruginosa, ATCC27853, P. aeruginosa ATCC 27853, read-out: Minimum inhibitory concentrations
Description: as §3, §4

A. baumannii ATCC 19606 = experiment: Broth microdilution MIC, A. baumannii ATCC 19606; assay type: cell-based; conditions: Acinetobacter baumannii, ATCC19606, A. baumannii ATCC 19606, read-out: Minimum inhibitory concentrations
Description: as §3, §4

E. coli JW5503 = experiment: Broth microdilution MIC, efflux-defective E. coli JW5503 (tolC deletion mutant); assay type: cell-based, Escherichia coli; conditions: for MIC: Escherichia coli; for improvement of antibacterial activity in iron-depleted medium: iron-depleted vs iron-supplemented medium, E. coli JW5503
Description: as §3, §4

[2] = system: wild type G− E. coli, P. aeruginosa and A. baumannii; experiment: Antibacterial activity against wild type G− bacteria (screen at 50 μM); assay type: cell-based
Description: as §3
as §4, with “The iron concentration in CAMHB and ID-CAMHB were approximately 0.2 mg L^−1 and ≤0.03 mg L^−1, respectively.” left out, “Cefiderocol was purchased from MedChemExpress Europe.” left out

E. coli topoisomerase IV [3] = molecular target: T1, E. coli topoisomerase IV; parameters: method as in PMID 33017402, PMID 33524686, PMID 36634346, PMID 36877255; conditions: parent inhibitors; cited from earlier work
[4] = E. coli ATCC 25922, +Fe: CAMHB + Fe, read-out: Minimum inhibitory concentrations
[5] = Escherichia coli, ATCC25922, read-out: Minimum inhibitory concentrations
[6] = JW5503, read-out: Minimum inhibitory concentrations, E. coli JW5503, +Fe: CAMHB + Fe
[7] = JW5503, read-out: Minimum inhibitory concentrations, E. coli JW5503, −Fe: ID-CAMHB

Row | SMILES | IC50 E. coli DNA gyrase (range in words) (E. coli DNA gyrase) | IC50 (E. coli DNA gyrase) [nM] | IC50 (E. coli topoisomerase IV [1]) [nM] | MIC (E. coli ATCC 25922; [4]) [µM] | MIC (E. coli ATCC 25922; [5]) [µM] | MIC (P. aeruginosa ATCC 27853; +Fe: CAMHB + Fe) [µM] | MIC (P. aeruginosa ATCC 27853; −Fe: ID-CAMHB) [µM] | MIC (A. baumannii ATCC 19606; +Fe: CAMHB + Fe) [µM] | MIC (A. baumannii ATCC 19606; −Fe: ID-CAMHB) [µM] | MIC (E. coli JW5503; JW5503, E. coli JW5503, iron-depleted conditions) [µg/mL] | MIC (E. coli JW5503; JW5503, E. coli JW5503, iron-supplemented conditions) [µg/mL] | MIC (E. coli JW5503; [6]) [µM] | MIC (E. coli JW5503; [7]) [µM] | improvement of antibacterial activity in iron-depleted medium (E. coli JW5503) | MIC [2] [µM] | melting point [°C] | MIC (E. coli ATCC 25922; Escherichia coli, ATCC25922, E. coli ATCC 25922, −Fe: iron depleted CAMHB (ID-CAMHB), read-out: Minimum inhibitory concentrations) [µM] | MIC ([2]; iron-supplemented and iron-depleted media, indicated by weak activity at 50 μM, read-out: MIC) [µM] | IC50 (E. coli topoisomerase IV [3]) [nM]
1 | Cc1[nH]c(C(=O)Nc2nc3c(OCc4cc(=O)c(O)c[nH]4)cc(C(=O)O)cc3s2)c(Cl)c1Cl [Compound 18b, 2-(3,4-Dichloro-5-methyl-1H-pyrrole-2-carboxamido)-4-((5-hydroxy-4-oxo-1,4-dihydropyridin-2-yl)methoxy)benzo[d]thiazole-6-carboxylic acid] | low nanomolar range | 22 ± 6 | 430 ± 20 | >50 | > 50 | > 50 | > 50 | > 50 | > 50 | 6.37 | 12.7 | 25 | 12.5 | twofold | > 50 | > 300 | – | – | –
2 | CC(C)(O/N=C(\C(=O)N[C@@H]1C(=O)N2C(C(=O)[O-])=C(C[N+]3(CCNC(=O)c4ccc(O)c(O)c4Cl)CCCC3)CS[C@H]12)c1csc(N)n1)C(=O)O [Cefiderocol, reference compound] | – | – | – | 0.25 | 0.25 (≈ 0.188 µg/mL) | 1 | 0.25 (≈ 0.188 µg/mL) | 2 | 0.25 (≈ 0.188 µg/mL) | – | – | 0.125 | 0.0625 | twofold | – | – | – | – | –
3 | O=C(O)c1cc(OCc2cc(=O)c(O)c[nH]2)c2nc(NC(=O)c3cc(Br)c(Br)[nH]3)sc2c1 [Compound 18a, 2-(4,5-Dibromo-1H-pyrrole-2-carboxamido)-4-((5-hydroxy-4-oxo-1,4-dihydropyridin-2-yl)methoxy)benzo[d]thiazole-6-carboxylic acid] | low nanomolar range | 12 ± 5 | 1280 ± 820 | >50 | – | – | – | – | – | – | – | – | – | – | – | – | > 50 | > 50 | –
4 | O=C(NCc1cc(=O)c(O)co1)c1ccc2nc(NC(=O)c3cc(Br)c(Br)[nH]3)sc2c1 [Compound 10, 2-(4,5-Dibromo-1H-pyrrole-2-carboxamido)-N-((5-hydroxy-4-oxo-4H-pyran-2-yl)methyl)benzo[d]thiazole-6-carboxamide] | low micromolar range | 1420 ± 180 | > 10000 | >50 | > 50 | > 50 | > 50 | > 50 | > 50 | – | – | > 50 | > 50 | – | > 50 | > 300 | – | – | –
5 | Cc1[nH]c(C(=O)Nc2nc3ccc(C(=O)O)cc3s2)c(Cl)c1Cl [A] | – | – | – | – | – | – | – | – | – | – | – | – | – | – | – | – | – | – | 500 ± 280
6 | O=C(NCc1cc(=O)c(O)c[nH]1)c1ccc2nc(NC(=O)c3cc(Br)c(Br)[nH]3)sc2c1 [Compound 12, 2-(4,5-Dibromo-1H-pyrrole-2-carboxamido)-N-((5-hydroxy-4-oxo-1,4-dihydropyridin-2-yl)methyl)benzo[d]thiazole-6-carboxamide] | low micromolar range | 1700 ± 360 | > 10000 | >50 | > 50 | > 50 | > 50 | > 50 | > 50 | – | – | > 50 | > 50 | – | > 50 | > 300 | – | – | –

— article PMC10794952, “Benzothiazole DNA gyrase inhibitors and their conjugates with siderophore mimics: design, synthesis and evaluation” (RSC Advances, 2024)
